What all share (assay): small GTPase panel, fluorescent GTP binding blockade – biochemical, Mg buffer, constant GTP, RhoA, Rac1, Cdc42, mechanism study for Ras-family GTPase inhibitor project, profiling panel (AID 2393);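 as to EC50: EC50 marks half change in GTP binding and may reflect gain or loss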
What all share (conditions): GST-GTPase beads, BODIPY-GTP binding, flow cytometry; for GTP binding remaining (% of DMSO): at 100 µM (top of the series)

The target in test [1] is Cell division control protein 42 homolog (Homo sapiens) (UniProt P60953).
The target of test [2] is Ras-related C3 botulinum toxin substrate 1 (Homo sapiens) (UniProt P63000).
Test [3] deals with Transforming protein RhoA (Homo sapiens) (UniProt P61586).

Molecules are shown by their SMILES. The source made the active and inactive calls.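 The calls were made as follows: active = none, because compounds meeting the potency rule were filed inconclusive for hitting several proteins; inconclusive = EC50 under 20 µM with over 15% binding change; inactive = the rest.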

`COc1cccc(C2CC(c3ccccc3)=NN2c2ccc(S(N)(=O)=O)cc2)c1` (centres undefined): the EC50 is 4.65 µM in test [1] (Cdc42ACT) and 4.69 µM in test [1] (Cdc42WT). Moreover, the “GTP binding remaining (% of DMSO)” value in test [2] (Rac1ACT), in test [2] (Rac1WT) and in test [3] (RhoWT) was “inactive” each time. Also, in test [3] (RhoACT), the EC50 entry is “inactive”.

With `COc1ccc(-c2cc(CCC(=O)N3CCN(c4cc(C)ccc4C)CC3)on2)cc1`, the EC50 was 2.78 µM in test [1] (Cdc42ACT), 0.97 µM in test [1] (Cdc42WT), 2.76 µM in test [2] (Rac1WT) and 1.3 µM in test [3] (RhoWT). Further, the “GTP binding remaining (% of DMSO)” value in test [2] (Rac1ACT) and in test [3] (RhoACT) was “inactive” throughout.

For `COc1ccc(-c2noc(CCC(=O)N3CCN(c4cc(C)ccc4C)CC3)n2)cc1`, the EC50 result in test [1] (Cdc42ACT), in test [1] (Cdc42WT), in test [3] (RhoACT) and in test [3] (RhoWT) was “inactive” in each case. In test [2] (Rac1ACT), the “GTP binding remaining (% of DMSO)” value is “inactive”. Besides, the EC50 in test [2] (Rac1WT) is 2.37 µM.

As for `NS(=O)(=O)c1ccc(N2N=C(c3ccccc3)CC2c2ccc(Br)cc2)cc1` (centres undefined), the results for the EC50 in test [1] (Cdc42ACT) and in test [1] (Cdc42WT) were 1.65 µM and 1.49 µM, respectively. In addition, the “GTP binding remaining (% of DMSO)” value in test [2] (Rac1ACT), in test [3] (RhoACT) and in test [3] (RhoWT) was “inactive” throughout. In addition, the EC50 entry in test [2] (Rac1WT) was “inactive”.

Regarding `COc1ccc(-c2noc(CCC(=O)N3CCC(c4cc(C)ccc4C)CC3)n2)cc1`, the “GTP binding remaining (% of DMSO)” value in test [1] (Cdc42ACT), in test [1] (Cdc42WT), in test [2] (Rac1ACT) and in test [3] (RhoACT) was “inactive” each time. Also, in test [2] (Rac1WT), the EC50 is 11.9 µM. Further, the EC50 entry in test [3] (RhoWT) was “inactive”.

In the case of `Cc1ccc(C2CC(c3ccccc3)=NN2c2ccc(S(N)(=O)=O)cc2)cc1` (centres undefined), the EC50 in test [1] (Cdc42ACT) was 5.07 µM; in test [1] (Cdc42WT), 4.36 µM. The “GTP binding remaining (% of DMSO)” value in test [2] (Rac1ACT), in test [3] (RhoACT) and in test [3] (RhoWT) was “inactive” each time. Also, the EC50 entry in test [2] (Rac1WT) is “inactive”.

As for `COc1ccc(-c2ccc(CCC(=O)N3CCN(c4cc(C)ccc4C)CC3)[nH]2)cc1`, the “GTP binding remaining (% of DMSO)” value in test [1] (Cdc42ACT), in test [1] (Cdc42WT), in test [2] (Rac1ACT), in test [2] (Rac1WT), in test [3] (RhoACT) and in test [3] (RhoWT) was “inactive” in each case.

Turning to `COc1ccc(C2CC(C)=NN2c2ccc(S(N)(=O)=O)cc2)cc1` (centres undefined), the “GTP binding remaining (% of DMSO)” value in test [1] (Cdc42ACT), in test [1] (Cdc42WT), in test [2] (Rac1WT), in test [3] (RhoACT) and in test [3] (RhoWT) was “inactive” in each case. For the same molecule, in test [2] (Rac1ACT), the EC50 entry was “inactive”.

Consider `NS(=O)(=O)c1ccc(N2N=C(c3ccccc3)CC2c2cccc(Br)c2)cc1` (centres undefined), for which the EC50 in test [1] (Cdc42ACT) was 5.86 µM; in test [1] (Cdc42WT) it was 6.95 µM. In addition, the “GTP binding remaining (% of DMSO)” value in test [2] (Rac1ACT), in test [2] (Rac1WT), in test [3] (RhoACT) and in test [3] (RhoWT) was “inactive” each time.
